Data published in ChEMBL document CHEMBL4665918, “Discovery of PEGylated 6-Benzhydryl-4-amino-quinazolines as Peripherally Restricted CBR Inverse Agonists” (ACS Med Chem Lett, 2020).
The source made the active and inactive calls. The calls are words filed in the database; no cut-off is given here.

Legend:
Cannabinoid receptor 1 = Cannabinoid receptor 1 (Homo sapiens, UniProt P21554); experiment: Inverse agonist activity at human CB1 receptor expressed in HEK293 cells assessed as forskolin-stimulated cAMP accumulation after 30 mins by HTRF assay; format: functional, cell-based
Cannabinoid receptor 1, sequence (P21554 whole entry): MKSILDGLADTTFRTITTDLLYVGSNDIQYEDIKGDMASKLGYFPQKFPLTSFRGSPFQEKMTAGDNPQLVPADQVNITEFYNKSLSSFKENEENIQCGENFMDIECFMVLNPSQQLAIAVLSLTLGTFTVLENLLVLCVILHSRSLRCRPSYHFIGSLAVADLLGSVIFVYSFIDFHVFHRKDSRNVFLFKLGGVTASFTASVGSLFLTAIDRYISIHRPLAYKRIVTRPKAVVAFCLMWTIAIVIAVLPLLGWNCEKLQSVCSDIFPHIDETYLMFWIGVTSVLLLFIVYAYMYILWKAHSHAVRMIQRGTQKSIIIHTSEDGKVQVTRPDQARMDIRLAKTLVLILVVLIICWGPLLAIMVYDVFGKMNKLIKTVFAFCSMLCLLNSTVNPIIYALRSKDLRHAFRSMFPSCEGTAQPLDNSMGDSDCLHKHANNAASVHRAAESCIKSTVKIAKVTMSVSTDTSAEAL

Homo sapiens = species: Homo sapiens; experiment: Selectivity index, ratio of EC50 for human CB2 receptor expressed in HEK293 cells to EC50 for human CB1 receptor expressed in HEK293 cells; format: cell-based
[1] = Ratio of drug level in brain to plasma in C57BL/6J mouse at 20 mg/kg, po measured after 1 hr; format: ADME, organism-based; conditions: brain and plasma
[2] = Ratio of drug level in brain to plasma in C57BL/6J mouse at 20 mg/kg, po measured after 4 hr; format: ADME, organism-based; conditions: brain and plasma
Mus musculus = experiment: In vivo inverse agonist activity at CB1 receptor in C57 mouse assessed as reduction in CP55940-induced inhibition of upper gastrointestinal motility at 10 mg/kg, po after 2 hrs; format: functional, organism-based

SMILES	EC50 (Cannabinoid receptor 1)	Ratio EC50 (Homo sapiens)	Kp at 1 h [1]	Kp at 1 h [2]	Activity (Mus musculus)
O=S(=O)(N1CCC(Nc2ncnc3ccc(C(c4ccc(Cl)cc4)c4ccc(Cl)cc4)cc23)CC1)C(F)(F)F	4.6 nM	170	0.02	0.08	–
O=C(NC(CO)(CO)CO)c1ccc(S(=O)(=O)N2CCC(Nc3ncnc4ccc(C(c5ccc(Cl)cc5)c5ccc(Cl)cc5)cc34)CC2)cc1	7.8 nM	–	–	–	–
Cc1c(C(=O)NN2CCCCC2)nn(-c2ccc(Cl)cc2Cl)c1-c1ccc(Cl)cc1	–	–	–	–	Active
